EC50 data for 24 molecules are collected here from patent US20250114338A1, “TETRAHYDRO-PYRIDO[3,4-b]INDOLE ESTROGEN RECEPTOR MODULATORS AND USES THEREOF” (Genentech, Inc., priority 2014, published 2025).

In general, EC50 refers to the concentration that produces a half-maximal response.

Molecules are shown by their SMILES. Bounds are passed on as bounds.

The subject of one experiment is ER-alpha MCF7. Briefly: ER-alpha MCF7 HCS EC50; stated as measured by in vitro cell proliferation assays of Examples 902 and 903. The format is cell-based. The following applies: Homo sapiens, MCF7, MCF7 cells; Table 1. The method in brief: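 MCF7 cells seeded 1000-2000 cells/well for 16 h, then treated with nine-point 1:2 DMSO dilution series in quadruplicate at 37 °C, 5% CO2 for 4 days. Viable cells quantified by CellTiter-Glo ATP luminescence; EC50 calculated. Controls: fulvestrant at final 100 nM, DMSO 0.2% v/v.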
With `C[C@@H]1Cc2c([nH]c3ccccc23)[C@@H](c2c(F)cc(OCCN3CC(CF)C3)cc2F)N1CC1(C)COC1` [Example 114, (1R,3R)-1-(2,6-difluoro-4-(2-(3-(fluoromethyl)azetidin-1-yl)ethoxy)phenyl)-3-methyl-2-((3-methyloxetan-3-yl)methyl)-2,3,4,9-tetrahydro-1H-pyrido[3,4-b]indole], the concentration for a half-maximal effect (EC50) was 0.715 nM.

Staying with this experiment, now noted: Homo sapiens, MCF7, MCF7 cells; Table 2.
With `C[C@@H]1Cc2c([nH]c3ccccc23)[C@@H](c2ccc(OCCN3CC(CF)C3)cc2)N1C[C@](C)(F)CO` [Example 276, (S)-2-fluoro-3-((1R,3R)-1-(4-(2-(3-(fluoromethyl)azetidin-1-yl)ethoxy)phenyl)-3-methyl-1,3,4,9-tetrahydro-2H-pyrido[3,4-b]indol-2-yl)-2-methylpropan-1-ol], the EC50 worked out at 0.309 nM.
Take `C[C@@H]1Cc2c([nH]c3ccccc23)[C@@H](c2c(F)cc(OCCN3CC(CF)C3)cc2F)N1CC(C)(F)CO` (stereo partly drawn) [Example 255, 3-((1R,3R)-1-(2,6-difluoro-4-(2-(3-(fluoromethyl)azetidin-1-yl)ethoxy)phenyl)-3-methyl-1,3,4,9-tetrahydro-2H-pyrido[3,4-b]indol-2-yl)-2-fluoro-2-methylpropan-1-ol]: the EC50 is 0.01 nM.
Still for that read-out and setting: the same measure for `CC1CN(CCOc2cc(F)c([C@@H]3c4[nH]c5ccccc5c4C[C@@H](C)N3CC(C)(C)F)c(F)c2)C1` [Example 140, (1R,3R)-1-[2,6-difluoro-4-[2-(3-methylazetidin-1-yl)ethoxy]phenyl]-2-(2-fluoro-2-methyl-propyl)-3-methyl-1,3,4,9-tetrahydropyrido[3,4-b]indole]: 0.13 nM; for `C[C@@H]1Cc2c([nH]c3ccc(F)cc23)[C@@H](c2c(F)cc(NC3CN(CCCF)C3)cc2F)N1S(C)(=O)=O` [Example 387, N-(3,5-difluoro-4-((1R,3R)-6-fluoro-3-methyl-2-(methylsulfonyl)-2,3,4,9-tetrahydro-1H-pyrido[3,4-b]indol-1-yl)phenyl)-1-(3-fluoropropyl)azetidin-3-amine]: 0.149 nM.
On the same count and under the same terms, for `CCCC(C)N1CC(Oc2cc(F)c([C@@H]3c4[nH]c5ccccc5c4C[C@@H](C)N3CC(C)(C)F)c(F)c2)C1` (stereo partly drawn) [Example 192, (1R,3R)-1-(2,6-difluoro-4-((1-(pentan-2-yl)azetidin-3-yl)oxy)phenyl)-2-(2-fluoro-2-methylpropyl)-3-methyl-2,3,4,9-tetrahydro-1H-pyrido[3,4-b]indole] the value was 1 nM; for `C[C@@H]1Cc2c([nH]c3ccccc23)[C@@H](c2c(F)cc(OCCN3CC(CF)C3)cc2F)N1CC(C)(C)O` [Example 127, 1-[(1R,3R)-1-[2,6-difluoro-4-[2-[3-(fluoromethyl)azetidin-1-yl]ethoxy]phenyl]-3-methyl-1,3,4,9-tetrahydropyrido[3,4-b]indol-2-yl]-2-methyl-propan-2-ol], 0.641 nM; for `C[C@@H]1Cc2c([nH]c3ccccc23)[C@@H](c2c(F)cc(OCCN3CC(CF)C3)cc2F)N1C(=O)CCC#N` [Example 206, 4-[(1R,3R)-1-[2,6-difluoro-4-[2-[3-(fluoromethyl)azetidin-1-yl]ethoxy]phenyl]-3-methyl-1,3,4,9-tetrahydropyrido[3,4-b]indol-2-yl]-4-oxo-butanenitrile], 31 nM.
Same read-out and setting: for `C[C@@H]1Cc2c([nH]c3ccccc23)[C@@H](c2c(F)cc(OCCN3CC(CF)C3)cc2F)N1C[C@H](C)c1ccccc1` [Example 198, (1R,3R)-1-(2,6-difluoro-4-(2-(3-(fluoromethyl)azetidin-1-yl)ethoxy)phenyl)-3-methyl-2-((R)-2-phenylpropyl)-2,3,4,9-tetrahydro-1H-pyrido[3,4-b]indole] the value was 2 nM; for `C[C@@H]1Cc2c([nH]c3ccccc23)[C@@H](c2ccc(OCCN3CC(CF)C3)c(F)c2F)N1CC(C)(C)F` [Example 281, (1R,3R)-1-(2,3-difluoro-4-(2-(3-(fluoromethyl)azetidin-1-yl)ethoxy)phenyl)-2-(2-fluoro-2-methylpropyl)-3-methyl-2,3,4,9-tetrahydro-1H-pyrido[3,4-b]indole], 0.183 nM.
`C[C@@H]1Cc2c([nH]c3ccccc23)[C@@H](c2c(F)cc(OC3CN(C[C@@H]4C[C@@H]4F)C3)cc2F)N1CC(C)(C)F` [Example 282, (1R,3R)-1-(2,6-difluoro-4-((1-(((1S,2S)-2-fluorocyclopropyl)methyl)azetidin-3-yl)oxy)phenyl)-2-(2-fluoro-2-methylpropyl)-3-methyl-2,3,4,9-tetrahydro-1H-pyrido[3,4-b]indole]: the EC50 stood at 1 nM.
Same read-out and setting: for `C[C@H]1Cc2c([nH]c3ccc(F)cc23)[C@H](c2c(F)cc(OCCN3CC(CF)C3)cc2F)N1CC(F)(F)F` [Example 355, (1S,3S)-1-(2,6-difluoro-4-(2-(3-(fluoromethyl)azetidin-1-yl)ethoxy)phenyl)-6-fluoro-3-methyl-2-(2,2,2-trifluoroethyl)-2,3,4,9-tetrahydro-1H-pyrido[3,4-b]indole] the value was 29.2 nM.
Same read-out and setting: for `C[C@@H]1Cc2c([nH]c3cccc(F)c23)[C@@H](c2c(F)cc(NC3CN(CCCF)C3)cc2F)N1C[C@@](C)(F)CO` [Example 400, (R)-3-((1R,3R)-1-(2,6-difluoro-4-((1-(3-fluoropropyl)azetidin-3-yl)amino)phenyl)-5-fluoro-3-methyl-3,4-dihydro-1H-pyrido[3,4-b]indol-2(9H)-yl)-2-fluoro-2-methylpropan-1-ol] the value was 0.023 nM; for `C[C@H]1Cc2c([nH]c3cccc(F)c23)[C@H](c2c(F)cc(NC3CN(CCCF)C3)cc2F)N1CC(F)(F)F` [Example 408, N-(3,5-difluoro-4-((1S,3S)-5-fluoro-3-methyl-2-(2,2,2-trifluoroethyl)-2,3,4,9-tetrahydro-1H-pyrido[3,4-b]indol-1-yl)phenyl)-1-(3-fluoropropyl)azetidin-3-amine], 6.3 nM; for `C[C@@H]1Cc2c([nH]c3ccccc23)[C@@H](c2c(F)cc(OCCN3CC(CF)C3)cc2F)N1C[C@@H](O)CO` [Example 268, (2R)-3-[(1R,3R)-1-[2,6-difluoro-4-[2-[3-(fluoromethyl)azetidin-1-yl]ethoxy]phenyl]-3-methyl-1,3,4,9-tetrahydropyrido[3,4-b]indol-2-yl]propane-1,2-diol], 8 nM.
For `C[C@@H]1Cc2c([nH]c3ccccc23)[C@H](c2c(F)cc(OCCN3CC(CF)C3)cc2F)N1CCC(F)(F)F` [Example 362, (1S,3R)-1-[2,6-difluoro-4-[2-[3-(fluoromethyl)azetidin-1-yl]ethoxy]phenyl]-3-methyl-2-(3,3,3-trifluoropropyl)-1,3,4,9-tetrahydropyrido[3,4-b]indole], the EC50 was above 100 nM.
The same measure, in the same setting: the same measure for `C[C@H]1Cc2c([nH]c3cccc(F)c23)[C@H](c2c(F)cc(OCCN3CC(CF)C3)cc2F)N1CC(C)(C)F` [Example 251, (1S,3S)-1-(2,6-difluoro-4-(2-(3-(fluoromethyl)azetidin-1-yl)ethoxy)phenyl)-5-fluoro-2-(2-fluoro-2-methylpropyl)-3-methyl-2,3,4,9-tetrahydro-1H-pyrido[3,4-b]indole]: 21 nM.
Still for that read-out and setting: the same measure for `C[C@H]1Cc2c([nH]c3cccc(F)c23)[C@H](c2c(F)cc(NC3CN(CCCF)C3)cc2F)N1C[C@@](C)(F)CO` [Example 399, (R)-3-((1S,3S)-1-(2,6-difluoro-4-((1-(3-fluoropropyl)azetidin-3-yl)amino)phenyl)-5-fluoro-3-methyl-3,4-dihydro-1H-pyrido[3,4-b]indol-2(9H)-yl)-2-fluoro-2-methylpropan-1-ol]: 1.1 nM.
Same read-out and setting: for `C[C@@H]1Cc2c([nH]c3ccccc23)[C@@H](c2c(F)cc(OC3CN(CCF)C3)cc2F)N1CC(C)(C)F` [Example 166, (1R,3R)-1-[2,6-difluoro-4-[1-(2-fluoroethyl)azetidin-3-yl]oxy-phenyl]-2-(2-fluoro-2-methyl-propyl)-3-methyl-1,3,4,9-tetrahydropyrido[3,4-b]indole] the value was 0.175 nM; for `C[C@@H]1Cc2c([nH]c3ccccc23)[C@@H](c2c(F)cc(OC3CN(CCCF)C3)cc2F)N1CC(C)(C)CO` [Example 284, 3-[(1R,3R)-1-[2,6-difluoro-4-[1-(3-fluoropropyl)azetidin-3-yl]oxy-phenyl]-3-methyl-1,3,4,9-tetrahydropyrido[3,4-b]indol-2-yl]-2,2-dimethyl-propan-1-ol], 0.382 nM; for `C[C@@H]1Cc2c([nH]c3ccccc23)[C@@H](c2c(F)cc(OCCN3CC(CF)C3)cc2F)N1CC(F)(F)F` [Example 174, (1R,3R)-1-[2,6-difluoro-4-[2-[3-(fluoromethyl)azetidin-1-yl]ethoxy]phenyl]-3-methyl-2-(2,2,2-trifluoroethyl)-1,3,4,9-tetrahydropyrido[3,4-b]indole], 0.285 nM.
For `C[C@@H]1Cc2c([nH]c3ccccc23)[C@@H](c2ccc(NC3CN(CCCF)C3)cc2F)N1C[C@](C)(F)CO` [Example 291, (S)-2-fluoro-3-((1R,3R)-1-(2-fluoro-4-((1-(3-fluoropropyl)azetidin-3-yl)amino)phenyl)-3-methyl-1,3,4,9-tetrahydro-2H-pyrido[3,4-b]indol-2-yl)-2-methylpropan-1-ol], the EC50 is 0.13 nM.

The experiment is the same for the next values; noted with them: MCF7 cells; Table 2.
In the case of `C[C@@H]1Cc2c([nH]c3ccccc23)[C@@H](c2c(F)cc(OC3CN(C4CC(CF)C4)C3)cc2F)N1CC(C)(C)F` (stereo partly drawn) [Example 392, (1R,3R)-1-(2,6-difluoro-4-((1- trans-(3-(fluoromethyl)cyclobutyl)azetidin-3-yl)oxy)phenyl)-2-(2-fluoro-2-methylpropyl)-3-methyl-2,3,4,9-tetrahydro-1H-pyrido[3,4-b]indole], the 50% effective concentration (EC50) came to 0.44 nM.
Same read-out and setting: for `C[C@@H]1Cc2c([nH]c3ccccc23)[C@@H](c2c(F)cc(OC3CN(C4CC(CF)C4)C3)cc2F)N1CC(C)(C)F` (stereo partly drawn) [Example 391, (1R,3R)-1-(2,6-difluoro-4-((1- cis-(3-(fluoromethyl)cyclobutyl)azetidin-3-yl)oxy)phenyl)-2-(2-fluoro-2-methylpropyl)-3-methyl-2,3,4,9-tetrahydro-1H-pyrido[3,4-b]indole] the value was 0.15 nM.
